Assay results as given in US12404260B2, “Pyridine rings containing derivatives as MALT1 inhibitors” (Janssen Pharmaceutica NV, priority 2019, dated 2025).

Columns and labels:
[1] = test system: secretion of IL10 by OCI-LY3 ABC-DLBCL cells; experiment: Human IL10 Mesoscale assay (OCI-LY3); type: cell-based; settings: 24 h incubation, IL10 in supernatant
Experimental: (§1) NFKB signaling regulates the secretion of multiple cytokines, including IL6 and IL10. Secretion of the cytokines IL6 and IL10 by OCI-LY3 ABC-DLBCL cells was measured using a mesoscale assay. Inhibition of NFKB signaling by MALT1 inhibitors results in a decrease of IL6/10 secretion.
(§2) OCI-LY3 cells were propagated in RPMI-1640 (Sigma Aldrich) supplemented with 10% fetal bovine serum (HyClone), 1 mM sodium pyruvate (Invitrogen), 2 mM L-glutamine (Sigma Aldrich) and 1% PenStrep (Sigma Aldrich). Cell passage number should not exceed 30. Cells should be kept between 0.5-2.5 million cells per mL during culturing and cells should be supplemented every 2-3 days with fresh 50 μM beta-mercaptoethanol. No beta-mercaptoethanol was used during the mesoscale assay.
(§3) For the Mesoscale assay, 100,000 OCI-LY3 cells were seeded per well into black-colored 96-well plates with clear bottom (Corning #3904) and test compounds were added in 9 dilution steps (1:2) ranging from 15 μM to 58.6 nM (final DMSO concentration 0.3%). DMSO control wells were used to determine the maximum signal (High Control (HC)). Treatment with the BTK inhibitor RN486 in a dose range from 30 nM to […] (9 dilutions of 1:2) served as a positive control for NFKB pathway inhibition and was used to determine the maximum inhibition (Low Control (LC)). Compounds and cells were incubated for 24 h at 37° C. and 5% CO2 (assay volume is 150 μL). After 24 h of incubation 50 μL of the supernatant was transferred to a MSD plate (V-Plex Proinflammation Panel 1 (human) kit, Mesoscale (MSD)) and incubated for 2 h with vigorous shaking (600 rpm) at room temperature. Following incubation, plates were washed 3× with PBS+0.05% Tween-20 and 25 μL detection antibody solution (IL6 & IL10 antibodies in diluent 3 (MSD)) was added per well followed by 2 h of incubation with vigorous shaking (600 rpm) at room temperature. After 3× washes with PBS+0.05% Tween-20, plates were incubated with 150 μL 2× Read Buffer T and read on SECTOR imager.

[2] = test system: secretion of IL6 by OCI-LY3 ABC-DLBCL cells; experiment: Human IL6 Mesoscale assay (OCI-LY3); type: cell-based; settings: 24 h incubation, IL6 in supernatant
Experimental: as §1, §2, §3

[3] = molecular target: T1, full-length MALT1 protein (Strep-MALT1(1-824)-His) (Homo sapiens, UniProt Q9UDY8); experiment: MALT1 Biochemical Protease Assay; settings: 10 nM FL MALT1, 200 μM Ac-LRSR-AMC, 50 min pre-incubation, 4 h at RT; read-out: MALT1_Biochemical activity (Ac-LRSR-amc) IC50
T1 construct: full-length MALT1 protein (Strep-MALT1(1-824)-His) purified from baculovirus-infected insect cells; Strep (N); His (C); made in house; host or cells: baculovirus-infected insect cells
T1 sequence (Q9UDY8 1-824): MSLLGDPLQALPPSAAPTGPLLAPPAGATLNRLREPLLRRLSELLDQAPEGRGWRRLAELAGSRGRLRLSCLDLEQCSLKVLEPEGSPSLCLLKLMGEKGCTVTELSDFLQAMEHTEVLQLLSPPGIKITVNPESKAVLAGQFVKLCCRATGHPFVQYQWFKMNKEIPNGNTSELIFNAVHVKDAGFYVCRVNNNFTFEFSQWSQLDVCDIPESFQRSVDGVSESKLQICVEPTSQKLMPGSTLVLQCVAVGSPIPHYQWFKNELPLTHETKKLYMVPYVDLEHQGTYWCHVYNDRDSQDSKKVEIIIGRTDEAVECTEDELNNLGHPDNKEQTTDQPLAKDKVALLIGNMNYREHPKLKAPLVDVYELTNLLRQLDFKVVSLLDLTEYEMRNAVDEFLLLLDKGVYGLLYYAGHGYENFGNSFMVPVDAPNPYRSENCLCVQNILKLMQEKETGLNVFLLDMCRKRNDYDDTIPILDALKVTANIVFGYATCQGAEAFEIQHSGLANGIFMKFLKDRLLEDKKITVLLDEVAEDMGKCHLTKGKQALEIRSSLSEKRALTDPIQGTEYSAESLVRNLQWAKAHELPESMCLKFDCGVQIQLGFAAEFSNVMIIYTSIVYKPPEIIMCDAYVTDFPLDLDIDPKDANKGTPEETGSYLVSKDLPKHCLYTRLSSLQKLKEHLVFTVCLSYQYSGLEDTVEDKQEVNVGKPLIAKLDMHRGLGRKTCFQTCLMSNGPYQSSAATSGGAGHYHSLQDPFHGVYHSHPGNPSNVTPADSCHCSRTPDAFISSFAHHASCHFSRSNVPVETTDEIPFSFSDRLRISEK
Experimental: MALT1 protease activity was assessed in an in vitro assay using a tetrapeptide as substrate and full-length MALT1 protein (Strep-MALT1(1-824)-His) purified from baculovirus-infected insect cells. The tetrapeptide LRSR is coupled to AMC (7-amino-4-methylcoumarin) and provides a quenched, fluorescent substrate for the MALT1 protease (SM Biochemicals). Cleavage of AMC from the Arginine residue results in an increase in coumarin fluorescence measured at 460 nm (excitation 355 nm). The final assay buffer consisted of 10 nM FL MALT1 protein, 200 μM Ac-LRSR-AMC, 50 mM Tris pH 7.5, 0.6 M Citrate, 1 mM DTT, 1 mM EDTA, 0.05% BSA and 1.5% DMSO. Test compounds were spotted at 50 nL in 100% DMSO per well of a black 384-Proxiplate (Perkin Elmer). Test compound concentrations ranged from 30 μM to 0.5 nM using 11 dilution steps (1:3). Background signal was measured from control wells containing assay buffer without enzyme which functions as low control (LC). High control (HC) values were generated using the reaction with enzyme but no compound treatment. Compounds were pre-incubated with MALT1 enzyme for 50 minutes at RT. Substrate was added subsequently and fluorescence was measured in Labsystems fluoroskan at excitation 355 nm and emission 460 nm to determine time 0. The reaction was subsequently incubated for 4 h at RT and fluorescence was measured. For IC50 calculations, timepoint 0 was subtracted from the 4 h timepoint to correct for any potential autofluorescence of the compounds. The enzyme reaction was linear during the 4 h incubation period. Characterization of the substrate Ac-LRSR-AMC determined the Michaelis constant KM at 200 μM.
IC50 values were calculated using the following formula (Z prime should be >0.5): […]
A best-fit curve was fitted by a minimum sum of squares method to the plot of % Controlmin vs. compound concentration. From this an IC50 value (inhibitory concentration causing 50% inhibition) can be obtained. An estimate of the slope of the plot in terms of the Hill coefficient was also obtained.
Used in “Lexis Dose Response Curve Fitting” Version 1.0.

Compound	IC50 ([1]; Homo sapiens) [nM]	IC50 ([2]; Homo sapiens) [nM]	IC50 [3] [nM]	IC50 [1] [nM]	IC50 [2] [nM]
CO[C@H](C)c1c(NC(=O)Nc2cnc(OC(F)F)c(Cl)c2)cnc(N)c1Cl (single isomer, unassigned) [Co. 136]	30	60	60	–	–
COc1cncc(NC(=O)Nc2cc(C(F)(F)F)c(-n3nccn3)nc2OC)c1[C@H](C)OC (single isomer, unassigned) [Co. 137]	80	80	40	–	–
COc1cncc(NC(=O)Nc2cc(Cl)c(-n3nccn3)nc2OC)c1[C@@H](C)OC (single isomer, unassigned) [Co. 140]	470	540	~620	–	–
COc1cncc(NC(=O)Nc2cc(Cl)c(-n3nccn3)nc2OC)c1[C@H](C)OC (single isomer, unassigned) [Co. 141]	140	130	60	–	–
CO[C@H](C)c1c(NC(=O)Nc2ccnc(C(F)(F)F)c2)cnc(C)c1C#N (single isomer, unassigned) [Co. 145]	170	260	290	–	–
COc1cncc(NC(=O)Nc2cc(C(F)(F)F)c(-n3nccn3)nc2OC)c1[C@@H](C)OC (single isomer, unassigned) [Co. 146]	160	320	270	–	–
CO[C@@H](C)c1c(NC(=O)Nc2ccnc(C(F)(F)F)c2)cnc(C)c1C#N (single isomer, unassigned) [Co. 149]	1320	1910	2880	–	–
CNc1ncc(NC(=O)Nc2cnc(-n3nccn3)c(Cl)c2)c([C@H](C)OC)c1Br (single isomer, unassigned) [Co. 153]	8710	11800	25000	–	–
CNc1ncc(NC(=O)Nc2cnc(-n3nccn3)c(Cl)c2)c([C@@H](C)OC)c1Br (single isomer, unassigned) [Co. 154]	710	1100	2690	–	–
CO[C@H](C)c1c(NC(=O)Nc2cnc(-n3nccn3)c(Cl)c2)cncc1OC(C)C [Co. 9]	–	–	170	170	190
COC(C)c1c(Cl)cncc1NC(=O)Nc1cnc(-n2nccn2)c(Cl)c1 (stereo not drawn) [Co. 22]	120	160	290	–	–
CO[C@H](C)c1c(Cl)cncc1NC(=O)Nc1cnc(-n2nccn2)c(Cl)c1 [Co. 23]	120	180	110	–	–

Next, values leading:

IC50 ([1]; Homo sapiens) [nM]	IC50 ([2]; Homo sapiens) [nM]	IC50 [3] [nM]	IC50 [1] [nM]	IC50 [2] [nM]	Compound
1020	2290	1380	–	–	[2H]C([2H])([2H])Oc1cncc(NC(=O)Nc2cnc(-n3nccn3)c(C(F)(F)F)c2)c1[C@H](C)OC (single isomer, unassigned) [Co. 129]
~110	190	50	–	–	[2H]C([2H])([2H])Oc1cncc(NC(=O)Nc2cnc(-n3nccn3)c(C(F)(F)F)c2)c1[C@@H](C)OC (single isomer, unassigned) [Co. 130]
~890	2340	1020	–	–	[2H]C([2H])([2H])O[C@@H](C)c1c(NC(=O)Nc2cnc(-n3nccn3)c(C(F)(F)F)c2)cncc1OC (single isomer, unassigned) [Co. 131]
60	150	50	–	–	[2H]C([2H])([2H])O[C@H](C)c1c(NC(=O)Nc2cnc(-n3nccn3)c(C(F)(F)F)c2)cncc1OC (single isomer, unassigned) [Co. 132]
310	930	550	–	–	CO[C@@H](C)c1c(NC(=O)Nc2cnc(-n3nccn3)c(C(F)(F)F)c2)cnc(C(F)F)c1Cl (single isomer, unassigned) [Co. 133]
80	80	40	–	–	CO[C@H](C)c1c(NC(=O)Nc2cnc(-n3nccn3)c(C(F)(F)F)c2)cnc(C(F)F)c1Cl (single isomer, unassigned) [Co. 134]
380	600	290	–	–	CO[C@H](C)c1c(NC(=O)Nc2cnc(-n3nccn3)c(C(F)(F)F)c2)cnc(N)c1Br (single isomer, unassigned) [Co. 138]
70	~100	20	–	–	CO[C@@H](C)c1c(NC(=O)Nc2cnc(-n3nccn3)c(C(F)(F)F)c2)cnc(N)c1Br (single isomer, unassigned) [Co. 139]
780	1200	790	–	–	CO[C@H](c1c(NC(=O)Nc2cnc(-n3nccn3)c(C(F)(F)F)c2)cnc(C)c1Cl)C1CC1 (single isomer, unassigned) [Co. 142]
50	80	50	–	–	CO[C@@H](c1c(NC(=O)Nc2cnc(-n3nccn3)c(C(F)(F)F)c2)cnc(C)c1Cl)C1CC1 (single isomer, unassigned) [Co. 143]
~45	60	40	–	–	CO[C@H](C)c1c(NC(=O)Nc2cnc(-n3nccn3)c(C(F)(F)F)c2)cnc(C(F)F)c1Br (single isomer, unassigned) [Co. 144]
660	850	560	–	–	CO[C@@H](C)c1c(NC(=O)Nc2cnc(-n3nccn3)c(C(F)(F)F)c2)cnc(C(F)F)c1Br (single isomer, unassigned) [Co. 147]
~60	~60	30	–	–	CC[C@@H](OC)c1c(NC(=O)Nc2cnc(-n3nccn3)c(C(F)(F)F)c2)cnc(C)c1C#N (single isomer, unassigned) [Co. 148]
140	150	100	–	–	CC[C@H](OC)c1c(NC(=O)Nc2cnc(-n3nccn3)c(C(F)(F)F)c2)cnc(C)c1C#N (single isomer, unassigned) [Co. 150]
